{"source": "patent US20260092037A1", "about": "“CRYSTALLINE SALT FORMS OF N-((1-(2-(TERT-BUTYLAMINO)-2-OXOETHYL)PIPERIDIN-4-YL) METHYL)-3-CHLORO-5-FLUOROBENZAMIDE AND METHODS OF USE THEREOF” (priority 2023, published 2026)", "key": {"[1]": {"assay": "X-ray powder diffraction (XRPD) of salt screen and scale-up products", "format": "physicochemical", "conditions": "salt screen", "source_text": "The Rigaku Smart-Lab X-ray diffraction system was configured for reflection Bragg-Brentano geometry using a line source X-ray beam. The x-ray source is a Cu Long Fine Focus tube that was operated at 40 kV and 44 ma. That source provides an incident beam profile at the sample that changes from a narrow line at high angles to a broad rectangle at low angles. Beam conditioning slits are used on the line X-ray source to ensure that the maximum beam size is less than 10 mm both along the line and normal to the line. The Bragg-Brentano geometry is a para-focusing geometry controlled by passive divergence and receiving slits with the sample itself acting as the focusing component for the optics. The inherent resolution of Bragg-Brentano geometry is governed in part by the diffractometer radius and the width of the receiving slit used. Typically, the Rigaku Smart-Lab is operated to give peak widths of 0.1° 2θ or less. The axial divergence of the X-ray beam is controlled by 5.0-degree Soller slits in both the incident and diffracted beam paths.\nPowder samples were prepared in a low background Si holder using light manual pressure to keep the sample surfaces flat and level with the reference surface of the sample holder. Each sample was analyzed from 2 to 40° 2θ using a continuous scan of 6° 2θ per minute with an effective step size of 0.02° 2θ."}, "absence seizures": {"tested_on": "absence seizures", "conditions": "childhood absence epilepsy, cited from earlier work"}, "[2]": {"conditions": "at 16 weeks, as assessed by video-EEG recordings"}}, "note": "Like-named read-outs stand apart in the source and are kept apart here."}
{"compound": "O=S(=O)(O)CCO", "note": "[Isethionate]", "values": [{"measurement": "XRPD Pattern", "setting": "[1]; Grind, ACN", "value": "API A + NC"}]}
{"compound": "N[C@@H](CCC(=O)O)C(=O)O", "note": "[Glutamate]", "values": [{"measurement": "XRPD Pattern", "setting": "[1]; Grind, ACN/water (9:1)", "value": "API A + acid"}, {"measurement": "XRPD Pattern", "setting": "[1]; SL, ACN, 50° C.", "value": "API A + acid"}]}
{"compound": "Stearate", "values": [{"measurement": "XRPD Pattern", "setting": "[1]; E, MeOH", "value": "API A + acid"}, {"measurement": "XRPD Pattern", "setting": "[1]; Grind, ACN", "value": "API A + acid"}]}
{"compound": "Caprate", "values": [{"measurement": "XRPD Pattern", "setting": "[1]; E (evaporation), EtOH", "value": "API A (PO)"}, {"measurement": "XRPD Pattern", "setting": "[1]; Grind, ACN", "value": "API A + pks"}]}
{"compound": "Ascorbate", "values": [{"measurement": "XRPD Pattern", "setting": "[1]; E (evaporation), EtOH", "value": "API A (PO)"}, {"measurement": "XRPD Pattern", "setting": "[1]; Grind, ACN", "value": "API A + acid"}]}
{"compound": "CCC1(C)CC(=O)NC1=O", "note": "(stereo not shown) [ethosuximide]", "values": [{"measurement": "patients in whom the seizures were completely controlled", "setting": "absence seizures; at 12 months", "value": 45, "unit": "%"}, {"measurement": "patients in whom the seizures were completely controlled", "setting": "absence seizures; [2]", "value": 53, "unit": "%"}]}
{"compound": "Benzoate", "values": [{"measurement": "XRPD Pattern", "setting": "[1]; E (evaporation), EtOH", "value": "API A + NC"}, {"measurement": "XRPD Pattern", "setting": "[1]; Grind, ACN", "value": "API A + NC"}, {"measurement": "XRPD Pattern", "setting": "[1]; SL, IPE, RT", "value": "API A"}]}
{"compound": "Oleate", "values": [{"measurement": "XRPD Pattern", "setting": "[1]; E, MeOH", "value": "API A (PO)"}, {"measurement": "XRPD Pattern", "setting": "[1]; Grind, ACN", "value": "API A + NC"}]}
{"compound": "O=CO", "note": "[Formate]", "values": [{"measurement": "XRPD Pattern", "setting": "[1]; E (evaporation), EtOH", "value": "API A (PO)"}, {"measurement": "XRPD Pattern", "setting": "[1]; Grind, ACN", "value": "API A"}]}
{"compound": "Nc1nnc(-c2cccc(Cl)c2Cl)c(N)n1", "note": "[Lamotrigine]", "values": [{"measurement": "patients in whom the seizures were completely controlled", "setting": "absence seizures; at 12 months", "value": 21, "unit": "%"}, {"measurement": "patients in whom the seizures were completely controlled", "setting": "absence seizures; [2]", "value": 29, "unit": "%"}]}
{"compound": "CC(=O)O", "note": "[Acetate]", "values": [{"measurement": "XRPD Pattern", "setting": "[1]; E (evaporation), EtOH", "value": "API A (PO)"}, {"measurement": "XRPD Pattern", "setting": "[1]; Grind, ACN", "value": "API A"}]}
{"compound": "O=C(O)CCC(=O)C(=O)O", "note": "[Ketoglutarate]", "values": [{"measurement": "XRPD Pattern", "setting": "[1]; E, MeOH/ACN (1:1)", "value": "NC + pks"}, {"measurement": "XRPD Pattern", "setting": "[1]; Grind, ACN", "value": "API A + NC"}]}
{"compound": "Tartrate", "values": [{"measurement": "XRPD Pattern", "setting": "[1]; Grind, IPA", "value": "API A + acid + NC"}]}
{"compound": "Hippurate", "values": [{"measurement": "XRPD Pattern", "setting": "[1]; E (evaporation), EtOH", "value": "API A + NC"}, {"measurement": "XRPD Pattern", "setting": "[1]; Grind, IPA", "value": "API A + acid"}]}
{"compound": "Gluconate", "values": [{"measurement": "XRPD Pattern", "setting": "[1]; E, MeOH/toluene (1:1), RT", "value": "API A"}, {"measurement": "XRPD Pattern", "setting": "[1]; Grind, ACN", "value": "API A"}, {"measurement": "XRPD Pattern", "setting": "[1]; LY, dioxane/water", "value": "API A + NC"}]}
{"compound": "Gentisate", "values": [{"measurement": "XRPD Pattern", "setting": "[1]; Grind, BuOAc", "value": "API A + NC"}]}
{"compound": "Pyroglutamate", "values": [{"measurement": "XRPD Pattern", "setting": "[1]; Grind, MEK", "value": "API A + pks"}]}
{"compound": "Caprylate", "values": [{"measurement": "XRPD Pattern", "setting": "[1]; E (evaporation), EtOH", "value": "API A (PO)"}, {"measurement": "XRPD Pattern", "setting": "[1]; Grind, ACN", "value": "API A"}]}
{"compound": "Laurate", "values": [{"measurement": "XRPD Pattern", "setting": "[1]; E, MeOH", "value": "API A + acid + pks"}, {"measurement": "XRPD Pattern", "setting": "[1]; Grind, ACN", "value": "API A + acid + pks"}]}
{"compound": "Camphorate", "values": [{"measurement": "XRPD Pattern", "setting": "[1]; E (evaporation), EtOH", "value": "API A (PO)"}, {"measurement": "XRPD Pattern", "setting": "[1]; Grind, ACN", "value": "API A + acid"}]}
{"compound": "Alginate", "values": [{"measurement": "XRPD Pattern", "setting": "[1]; Grind, IPA", "value": "API A"}]}
{"compound": "Citrate", "values": [{"measurement": "XRPD Pattern", "setting": "[1]; Grind, EtOAc", "value": "API A + acid + NC"}]}
{"compound": "Palmitate", "values": [{"measurement": "XRPD Pattern", "setting": "[1]; E, MeOH", "value": "API A + acid"}, {"measurement": "XRPD Pattern", "setting": "[1]; Grind, ACN", "value": "API A + acid"}]}
{"compound": "Malate", "values": [{"measurement": "XRPD Pattern", "setting": "[1]; Grind, IPA", "value": "API A + NC"}]}
{"compound": "CC(C)C(=O)O", "note": "[Isobutyrate]", "values": [{"measurement": "XRPD Pattern", "setting": "[1]; E, MeOH", "value": "API A"}, {"measurement": "XRPD Pattern", "setting": "[1]; Grind, ACN", "value": "API A"}]}
{"compound": "Glucuronate", "values": [{"measurement": "XRPD Pattern", "setting": "[1]; Grind, acetone", "value": "API A + pks"}, {"measurement": "XRPD Pattern", "setting": "[1]; LY, dioxane/water", "value": "API A + NC"}]}
{"compound": "Propionate", "values": [{"measurement": "XRPD Pattern", "setting": "[1]; E, MeOH", "value": "API A"}, {"measurement": "XRPD Pattern", "setting": "[1]; Grind, ACN", "value": "API A"}]}
